Values quoted from earlier work as cited in US20050142195A1, “Stable pharmaceutical compositions without a stabilizer” (priority 2002, published 2005).
Read-outs that look alike come from different tables or passages of the source.

stability in mixture with lubricant (in the presence of magnesium stearate or stearic acid): poor | stability in mixture with lubricant (in the presence of talc): stable
SMILES: CC(NC(C)(C)C)C(=O)c1cccc(Cl)c1.Cl (racemic) [bupropion, (±)-1-(3-chlorophenyl)-2-[(1,1-dimethylethyl)amino]-1-propanone hydrochloride]
